Test results: ChEMBL document CHEMBL1201862, “PubChem BioAssay data set” (2004)
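These data come from cells grown in 96-well plates and exposed to compound for 48 hours at five concentrations. The concentration for 50% growth inhibition is given as GI50.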 Active and inactive are the calls of the source. Rule as the data show it: active = GI50 up to about 1.1 µM and inactive = higher.

What was measured:
Test in all cases: DTP human tumour cell line panel, 48 h
M14 = test system: M14
HL-60 = test system: HL-60
RPMI-8226 = test system: RPMI-8226
Malme-3M = test system: Malme-3M
SNB-75 = test system: SNB-75
NCI-H460 = test system: NCI-H460
NCI-H226 = test system: NCI-H226
HT-29 = test system: HT-29
KM12 = test system: KM12
RXF 393 = test system: RXF 393
Hs-578T = test system: Hs-578T
MDA-MB-435 = test system: MDA-MB-435
HCT-15 = test system: HCT-15
OVCAR-5 = test system: OVCAR-5
SK-OV-3 = test system: SK-OV-3
K562 = test system: K562
A549 = test system: A549
HOP-62 = test system: HOP-62
NCI/ADR-RES = test system: NCI/ADR-RES
UO-31 = test system: UO-31
SN12C = test system: SN12C
786-0 = test system: 786-0
OVCAR-4 = test system: OVCAR-4
U-251 = test system: U-251
SK-MEL-2 = test system: SK-MEL-2
UACC-257 = test system: UACC-257
SF-295 = test system: SF-295
SF-268 = test system: SF-268
COLO 205 = test system: COLO 205
OVCAR-8 = test system: OVCAR-8
TK-10 = test system: TK-10
ACHN = test system: ACHN
NCI-H23 = test system: NCI-H23
SW-620 = test system: SW-620
BT-549 = test system: BT-549
SNB-19 = test system: SNB-19
LOX IMVI = test system: LOX IMVI
MCF7 = test system: MCF7
EKVX = test system: EKVX
SK-MEL-5 = test system: SK-MEL-5
HCC 2998 = test system: HCC 2998
DU-145 = test system: DU-145
MDA-N = test system: MDA-N
MDA-MB-231 = test system: MDA-MB-231
IGROV-1 = test system: IGROV-1
PC-3 = test system: PC-3
HCT-116 = test system: HCT-116
NCI-H522 = test system: NCI-H522
MOLT-4 = test system: MOLT-4
CAKI-1 = test system: CAKI-1
OVCAR-3 = test system: OVCAR-3

Measured: GI50

CC(=O)O[C@H]1CC2C(C3CCC(C(C)CCC(N)=O)[C@]31C)[C@H](OC(C)=O)C[C@@H]1CC3(CC[C@]21C)OOC1(CC[C@]2(C)C4C[C@H](OC(C)=O)[C@]5(C)C(C(C)CCC(N)=O)CCC5C4[C@H](OC(C)=O)C[C@@H]2C1)OO3 (stereo partly specified)
inactive: M14 1.95 µM | HL-60 1.45 µM | RPMI-8226 1.22 µM | Malme-3M 2.61 µM | SNB-75 1.56 µM | NCI-H460 1.69 µM | NCI-H226 1.33 µM | HT-29 1.63 µM | KM12 1.66 µM | RXF 393 1.61 µM | Hs-578T 2.17 µM | MDA-MB-435 1.4 µM | OVCAR-5 1.69 µM | SK-OV-3 2.06 µM | K562 1.76 µM | A549 1.43 µM | HOP-62 2.01 µM | NCI/ADR-RES 2.09 µM | UO-31 1.13 µM | SN12C 1.79 µM | 786-0 1.55 µM | OVCAR-4 1.83 µM | U-251 1.6 µM | SK-MEL-2 1.84 µM | UACC-257 1.49 µM | SF-295 1.53 µM | SF-268 1.75 µM | OVCAR-8 1.55 µM | TK-10 1.8 µM | ACHN 1.62 µM | NCI-H23 1.49 µM | SW-620 2.63 µM | BT-549 1.2 µM | SNB-19 2.61 µM | LOX IMVI 1.4 µM | MCF7 1.58 µM | EKVX 1.67 µM | SK-MEL-5 1.33 µM | DU-145 1.73 µM | MDA-N 1.65 µM | MDA-MB-231 1.51 µM | IGROV-1 1.69 µM | PC-3 1.41 µM | HCT-116 1.33 µM | NCI-H522 2.18 µM | CAKI-1 1.88 µM | OVCAR-3 1.42 µM
active: COLO 205 1.11 µM | HCC 2998 0.966 µM | MOLT-4 1.11 µM
1.48 µM: HCT-15
